Two compounds from US10011629B2, “Nucleoside analogs for treatment of the flaviviridae family of viruses and cancer” (Cocrystal Pharma, Inc., priority 2015, dated 2018) can be followed below.

In general, EC90 refers to the concentration at which the effect reaches the 90% level. By CC50 is commonly meant the concentration giving 50% cytotoxicity. The term inhibition denotes how much of the control response was suppressed. For orientation: IC50 means the midpoint of a concentration-inhibition curve. In general, EC50 refers to the midpoint of the concentration-response curve. A lower EC50 goes with an effect from little substance.

For data set [1], the system named is HCV 1b (Huh 7 Clone B cells containing HCV Replicon RNA). In words: HCV replicon assay. It is filed as cell-based. The conditions noted are these: Hepatitis C virus, Huh-7, read-out: EC90 (μM or letter value) or % inhib HCV. The procedure: Huh 7 Clone B cells containing HCV Replicon RNA were seeded in a 96-well plate at 5000 cells/well, and the compounds tested at 10 μM in triplicate immediately after seeding. Following five days incubation (37° C., 5% CO2), total cellular RNA was isolated by using versaGene RNA purification kit from Gentra. Replicon RNA and an internal control (TaqMan rRNA control reagents, Applied Biosystems) were amplified in a single step multiplex Real Time RT-PCR Assay. The antiviral effectiveness of the compounds was calculated by subtracting the threshold RT-PCR cycle of the test compound from the threshold RT-PCR cycle of the no-drug control (ΔCt HCV). A ΔCt of 3.3 equals a 1-log reduction (equal to 90% less starting material) in Replicon RNA levels. The cytotoxicity of the compounds was also calculated by using the ΔCt rRNA values. 2′-C-Me-C was used as the positive control. To determine EC90 and IC50 values^2, ΔCt: values were first converted into fraction of starting material^3 and then were used to calculate the % inhibition. […]
Background: In antiviral work, replicon cells carry a viral genome segment that copies itself.

A short description of data set [2]: Assay for bone marrow cytotoxicity. It is filed as cell-based, human. As to conditions: human, primary bone marrow mononuclear cells; organization LOBP; read-out: Bone marrow toxicity, CC50. The procedure: Primary human bone marrow mononuclear cells can be obtained commercially from Cambrex Bioscience (Walkersville, Md.). CFU-GM assays is carried out using a bilayer soft agar in the presence of 50 units/mL human recombinant granulocyte/macrophage colony-stimulating factor, while BFU-E assays used a […] matrix containing 1 unit/mL erythropoietin (see Sommadossi J P, Carlisle R. Toxicity of 3′-azido-3′-deoxythymidine and 9-(1,3-dihydroxy-2-propoxymethyl) guanine for normal human hepatopoietic progenitor cells in vitro. Antimicrob. Agents Chemother. 1987; 31: 452-454; Sommadossi, J P, Schinazi, R F, Chu, C K, and Xie, M Y. Comparison of cytotoxicity of the (−) and (+) enantiomer of 2′,3′-dideoxy-3′-thiacytidine in normal human bone marrow progenitor cells. Biochem. Pharmacol. 1992; 44:1921-1925). Each experiment can be performed in duplicate in cells from three different donors. AZT is used as a positive control. […] Statistical analysis can be performed with Student's t test for independent non-paired samples.

The subject of data set [3] is Huh-7 cells. Description: Cellular pharmacology in Huh7 cells (intracellular metabolites). The conditions noted are these: Huh-7 cells, 50 μM, 4 hr. The procedure:
Ice-cold 70% methanol was used as the extraction solvent. ddATP (10 nM) was used as the internal standard.

Data set [4] relates to HepG2 cells. Description: Lactic acid production in HepG2 cells. It counts as cell-based, human. As to conditions: 14-day assay. The procedure:
To measure the effects of the compounds on lactic acid production, HepG2 cells from a stock culture were diluted and plated in 12-well culture plates at 2.5×10^4 cells per well. […] […] The culture medium was then filtered, and the lactic acid content in the medium was determined using a colorimetric lactic acid assay (Sigma-Aldrich). Since lactic acid product can be considered a marker for impaired mitochondrial function, elevated levels of lactic acid production detected in cells grown in the presence of test compounds would indicate a drug-induced cytotoxic effect.

In data set [5] the test system is nuclear DNA (ß-actin or rRNA gene) in HepG2 cells. In words: Nuclear DNA level in HepG2 cells (real-time PCR). As to conditions: Homo sapiens, 336 h, HepG2 cells, 14-day assay. It is filed as cell-based, human. The procedure: (§1) This assay was used in all studies described in this application that determine the effect of compounds on mitochondrial DNA content. In this assay, low-passage-number HepG2 cells were seeded at 5,000 cells/well in collagen-coated 96-well plates. Test compounds were added to the medium to obtain final concentrations of 0 μM, 0.1 μM, 10 μM and 100 μM. […] The mitochondrial cytochrome c oxidase subunit II (COXII) gene and the ß-actin or rRNA gene were amplified from 5 μl of the eluted nucleic acids using a multiplex Q-PCR protocol with suitable primers and probes for both target and reference amplifications. […] For exon 3 of the ß-actin gene (GenBank accession number E01094) the sense, probe, and antisense primers are 5′-[…]-3′ (SEQ ID NO. 4), 5′-6-[…]-3′ (SEQ ID NO. 5) and 5′-[…]-3′ (SEQ ID NO. 6), respectively. The primers and probes for the rRNA gene are commercially available from Applied Biosystems. […] The comparative CT method uses arithmetic formulas in which the amount of target (COXII gene) is normalized to the amount of an endogenous reference (the B-actin or rRNA gene) and is relative to a calibrator (a control with no drug at day 7). The arithmetic formula for this approach is given by 2-ΔΔCT, where ΔΔCT is (CT for average target test sample−CT for target control)−(CT for average reference test−CT for reference control) (see Johnson M R, K Wang, J B Smith, M J Heslin, R B Diasio. Quantitation of dihydropyrimidine dehydrogenase expression by real-time reverse transcription polymerase chain reaction. Anal. Biochem. 2000; 278:175-184). A decrease in mitochondrial DNA content in cells grown in the presence of drug indicated mitochondrial toxicity.
For orientation: In qPCR the cycle at which signal appears reflects the starting amount.

Data set [6] relates to mitochondrial DNA (COXII gene) in HepG2 cells. In words: Mitochondrial DNA level in HepG2 cells (real-time PCR). The procedure:
as §1, with “The” for “The comparative CT method uses arithmetic formulas in which the amount of target (COXII gene) is normalized to the amount of an endogenous reference (the B-actin or rRNA gene) and is relative to a calibrator (a control with no drug at day 7). The”

Data set [7] can be described thus: Cytotoxicity in HCV replicon assay (ΔCt rRNA). It is filed as cell-based. As to conditions: human. The method, then:
Huh 7 Clone B cells containing HCV Replicon RNA were seeded in a 96-well plate at 5000 cells/well, and the compounds tested at 10 μM in triplicate immediately after seeding. Following five days incubation (37° C., 5% CO2), total cellular RNA was isolated by using versaGene RNA purification kit from Gentra. Replicon RNA and an internal control (TaqMan rRNA control reagents, Applied Biosystems) were amplified in a single step multiplex Real Time RT-PCR Assay. The antiviral effectiveness of the compounds was calculated by subtracting the threshold RT-PCR cycle of the test compound from the threshold RT-PCR cycle of the no-drug control (ΔCt HCV). A ΔCt of 3.3 equals a 1-log reduction (equal to 90% less starting material) in Replicon RNA levels. The cytotoxicity of the compounds was also calculated by using the ΔCt rRNA values. 2′-C-Me-C was used as the positive control. To determine EC90 and IC50 values^2, ΔCt: values were first converted into fraction of starting material^3 and then were used to calculate the % inhibition.

Data set [8] has as its target HCV NS5B RNA polymerase GT 3a WT. In words: NS5B enzyme assay, GT 3a WT. As to conditions: NS5B enzyme GT 3a WT; average of two to three replicates ± SD. It counts as biochemical. The procedure: The 21-amino-acid C-terminal truncated HCV NS5B RNA polymerase can be cloned from the HCV replicon cells, modified with a six-His-terminal tail, expressed in a prokaryotic expression vector (pQE60; Qiagen), and subsequently purified over a Talon cobalt affinity resin column (Clontech, Palo Alto, Calif.).^1 Purification can be monitored by SDS-PAGE and Western blotting. The resulting purified protein can be dialyzed overnight against 50 mM sodium phosphate (pH 8.0)-300 mM sodium chloride-0.5% Triton X-100-50% glycerol-2 mM dithiothreitol. The dialysate maintains consistent activity for more than 6 months when stored at −20° C. Protein can be quantified with the Coomassie Plus protein assay reagent (Pierce) by using a bovine serum albumin standard from the same supplier.
NS5B RNA polymerase reaction can be studied by monitoring the incorporation of ^32P-labeled UMP into the newly synthesized RNA strand by using minus IRES as the template. […] After the membrane is rinsed with water followed by rinsing with ethanol, the dots can be cut out and the radioactivity counted in a Packard liquid scintillation counter. The amount of product can be calculated on the basis of the total radioactivity in the reaction mixture. The rate of the reaction can be determined from the slope of the time course of product formation. […]

Setting [9] is: Homo sapiens, HepG2, read-out: % inhibition MitDNA.

Each structure is given as a SMILES string. Like-named read-outs stand apart in the source and are kept apart here.

In the case of `O=c1ccn([C@@H]2O[C@H](CO)[C@@H](O)[C@@]2(F)Br)c(=O)[nH]1` [Compound 7, 2′-Deoxy-2′-Bromo-2′-Fluoro Uridine], the EC90 in data set [1] was greater than 10 µM. Also, the CC50 in data set [2] was greater than 100 µM. Moreover, the “intracellular 7-DP” value in data set [3] was “BLOQ”. The “intracellular 7-MP” value in data set [3] is “BLOQ”. The “intracellular 7-TP” value in data set [3] was “BLOQ”. Moreover, in data set [3], the “intracellular 9” value was “BLOQ”. Besides, the “Lactic acid Production (% of control)” value is 85.0 ± 16.3 % of control in data set [4] (10 μM) and 69.0 ± 13.5 % of control in data set [4] (50 μM). Further, the inhibition at 10 µM in data set [5] (10 μM, read-out: % inhibition nDNA) was 4.4%; in data set [6] (setting [9]), less than 1%. The inhibition at 50 µM in data set [5] (50 μM, read-out: % inhibition nDNA) is less than 1%; in data set [6] (setting [9]), 13.5%. Besides, the IC50 was greater than 50 µM in data set [5] (read-out: IC50 nDNA) and greater than 50 µM in data set [6] (Homo sapiens, HepG2, read-out: IC50 MitDNA). Besides, the “Summary (mitochondrial toxicity)” value in data set [6] was “not toxic”; in data set [6] (human, 14 days), “non-toxic up to 10 μM”. The “MitDNA Content (% of control)” value in data set [6] (human, 14 days, 10 μM) is given as 117 (98-138) % of control; in data set [6] (human, 14 days, 50 μM), 72 (63-83) % of control. In data set [7], this compound had a CC50 at 5 days greater than 10 µM.
The compound `C[C@@]1(O)[C@H](O)[C@@H](COP(=O)(O)OP(=O)(O)OP(=O)(O)O)O[C@H]1n1ccc(=O)[nH]c1=O` [2′-Me-UTP] gave an EC50 in data set [8] of 1.8 µM.
